Values of other authors in US20260174646A1, “Topical detergent composition comprising ascorbyl glucoside and ascorbyl palmitat” (Mitochon S.r.l., priority 2022, published 2026).

Q: What does the source list for CCCCCCCCCCCCCCCC(=O)OC[C@H](O)[C@H]1OC(=O)C(O)=C1O [ascorbyl palmitate, Ascorbyl palmitate]?
A: ability to release ascorbic acid into the epidermis (refs. [8,9]): reduced ability to release ascorbic acid into the epidermis; tissue levels of ascorbic acid when applied to the skin (topical application, ref. [7]): incapable of increasing tissue levels of ascorbic acid
